Patent US20240376109A1, “PYRAZOLO[1,5-A]PYRIMIDINE COMPOUND FOR THE TREATMENT OF DERMAL DISORDERS” (OTSUKA PHARMACEUTICAL CO., LTD., priority 2021, published 2024)

biological target: T1, PAR2 (Homo sapiens, UniProt P55085); assay: Intracellular calcium concentration measurement (SLIGKV-NH2-induced calcium change, Fluo-8, FDSS/μCELL); type: cell-based; conditions: HEK293 cells; SLIGKV-NH2 10 μM-induced intracellular calcium change; read-out: IC50
T1 construct: HEK293 cell lines derived from human embryonic kidney cultured in a MEM culture medium; endogenous in cells; host or cells: HEK293
T1 sequence (P55085 26-397): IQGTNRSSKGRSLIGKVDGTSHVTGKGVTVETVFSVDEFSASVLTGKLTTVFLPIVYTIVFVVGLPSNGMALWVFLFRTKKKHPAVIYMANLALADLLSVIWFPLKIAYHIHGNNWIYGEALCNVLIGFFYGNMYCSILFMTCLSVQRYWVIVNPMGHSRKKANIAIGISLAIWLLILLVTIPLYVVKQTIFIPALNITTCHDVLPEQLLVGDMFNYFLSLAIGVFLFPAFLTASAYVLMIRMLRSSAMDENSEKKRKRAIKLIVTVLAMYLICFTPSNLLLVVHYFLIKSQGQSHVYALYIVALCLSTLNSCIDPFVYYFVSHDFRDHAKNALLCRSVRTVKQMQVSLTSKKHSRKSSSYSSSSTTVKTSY

SMILES	IC50 [nM]
O=C(c1cc2nc(CC3CCCC3)cc(C(F)(F)F)n2n1)N1CCCCCCCC1 [Example 41]	246
CCC1CCC(Cc2cc(C(C)C)n3nc(C(=O)N4CCCCCC4)cc3n2)CC1 (stereo not drawn) [Example 139]	95
CCC(CC)c1cc(CC2CCCCCC2)nc2cc(C(=O)N3CCCCC3(C)C)nn12 [Example 130]	297
CC1(C)C(=O)CCCN1C(=O)c1cc2nc(C34CC5CC(CC(C5)C3)C4)cc(C(F)(F)F)n2n1 [Example 96]	10
CC(C)c1cc(CC2CCCCCC2)nc2cc(C(=O)N3CCCCCC3)nn12 [Example 46]	99
CC(C)(C)c1cc(CC2CCCCC2)nc2cc(C(=O)N3CCCCCC3)nn12 [Example 28, azepan-1-yl-[7-tert-butyl-5-(cyclohexylmethyl)pyrazolo[1,5-a]pyrimidin-2-yl]methanone]	60
CC(C)c1cc(CC2CCCCC2C)nc2cc(C(=O)N3CCCCCC3)nn12 (stereo not drawn) [Example 158]	117
O=C(c1cc2nc(CC34CC5CC(CC(C5)C3)C4)cc(C(F)(F)F)n2n1)N1CCCCCC1 [Example 26]	80
COC1CCN(C(=O)c2cc3nc(CC4CCCC4)cc(C(C)C)n3n2)C(C)(C)C1 (stereo not drawn) [Example 114]	234
CCC(CC)c1cc(CC2CCCC2)nc2cc(C(=O)N3CCC(O)CC3(C)C)nn12 (stereo not drawn) [Example 106]	96
Cc1cc(CC2CCC(C)CC2)nc2cc(C(=O)N3CCCCCC3)nn12 (stereo not drawn) [Example 20]	24
CC1CCC(Cc2cc(C(C)C)n3nc(C(=O)N4CCCCCC4)cc3n2)CC1 (stereo not drawn) [Example 21]	298
CCC(CC)c1cc(CC2CCCC2)nc2cc(C(=O)N3CCCCCCC3)nn12 [Example 79]	145
CCC(C)c1cc(CC2CCCCC2)nc2cc(C(=O)N3CCCCCCC3)nn12 (stereo not drawn) [Example 143]	91
CC(C)c1cc(CC2CCCCCC2)nc2cc(C(=O)N3CCCCC3(C)C)nn12 [Example 49]	119
CC1(C)CCCCN1C(=O)c1cc2nc(CC3CCCC3)cc(C(F)(F)F)n2n1 [Example 30]	102
CC(C)(C)c1cc(C23CC4CC(CC(C4)C2)C3)nc2cc(C(=O)N3CCCCCC3)nn12 [Example 23]	30
CCCCCc1cc(C23CC4CC(CC(C4)C2)C3)nc2cc(C(=O)N3CCCCCC3)nn12 [Example 133]	360
CCC(C)c1cc(CC2CCCC2)nc2cc(C(=O)N3CCCCC3(C)C)nn12 (stereo not drawn) [Example 75]	89
COC1CCN(C(=O)c2cc3nc(CC4CCCC4)cc(C(F)(F)F)n3n2)C(C)(C)C1 (stereo not drawn) [Example 113]	263
CC1(C)COCCN1C(=O)c1cc2nc(CC3CCCCC3)cc(C(F)(F)F)n2n1 [Example 66]	241

Other lines, results leading:

IC50 [nM]	SMILES
47	CC(C)c1cc(CC2CC3CCC2C3)nc2cc(C(=O)N3CCCCCC3)nn12 (stereo not drawn) [Example 154]
304	CCC(C)c1cc(CC2CCCC2)nc2cc(C(=O)N3CCCCC3)nn12 (stereo not drawn) [Example 141]
130	CCc1cc(CC2CCCCC2)nc2cc(C(=O)N3CCCCC3(C)C)nn12 [Example 35]
178	COC1(C)CCCN(C(=O)c2cc3nc(CC4CCCCC4)cc(C(C)C)n3n2)C1(C)C (stereo not drawn) [Example 122]
256	CC(C)c1cc(CC2CCCCC2)nc2cc(C(=O)N3CCSCC3)nn12 [Example 125]
146	CCC(C)c1cc(CC2CCCCC2)nc2cc(C(=O)N3CCCCCC3)nn12 (stereo not drawn) [Example 47]
185	CC(C)(C)c1cc(C2CCCCC2)nc2cc(C(=O)N3CCCCCC3)nn12 [Example 43]
105	CCC(CC)c1cc(CC2CCCCC2)nc2cc(C(=O)N3CCCCCC3)nn12 [Example 48]
147	CC(C)c1cc(CC2CC3(CCC3)C2)nc2cc(C(=O)N3CCCCCC3)nn12 [Example 160]
151	CCC(C)c1cc(CC2CCCCC2)nc2cc(C(=O)N3CCSCC3)nn12 (stereo not drawn) [Example 128]
185	CC(C)c1cc(CC2CCCCC2)nc2cc(C(=O)N3CCC(C)(C)C(=O)C3(C)C)nn12 [Example 119]
70	CC(C)(C)c1cc(C23CC4CC(CC(C4)C2)C3)nc2cc(C(=O)N3CCNCC3(C)C)nn12 [Example 101]
